Converted amounts (≈) assume the structure as drawn.
How the values were obtained:
Type in all cases: cell-based
S. aureus (27660) = test: MIC assay (Table 1); conditions: Staphylococcus aureus, isolate 27660
K. pneumoniae (13883) = test: MIC assay (Table 1); conditions: Klebsiella pneumoniae, isolate 13883, read-out: MIC50 K. Pnuemnoiae
Description: (§1) The compounds are screened for antimicrobial activity against a number of clinically relevant pathogens. Minimum Inhibitory Concentrations (MIC) of each of the compounds are determined using standard procedures for clinical ocular isolates of Ciprofloxacin Susceptible (CS) S. aureus (CSSA), Ciprofloxacin Resistant (CR) S. aureus (CRSA), CS S. epidermidis (CSSE), CR S. epidermidis (CRSE), St. pneumoniae (SP), St. viridans group (SV), Moraxella Species (MS) (including Moraxella catarrhalis), H. influenzae (HI), P. aeruginosa (PA), Serratia marcescens (SM), S. aureus fluoroquinolone-susceptible, S. aureus fluoroquinolone-resistant, S. epidermidis (Coagulase-negative Staphylococcus) fluoroquinolone-susceptible, S. epidermidis (Coagulase-negative Staphylococcus) fluoroquinolone-resistant, and Serratia marcescens.
(§2) On the day of testing, a 640 μg/m (1280 μg/m for Serratia marcescens and Pseudomonas aeruginosa) concentration is prepared from a 1% stock solution in 0.01% acetic acid, 0.2% BSA in polypropylene tubes.
(§3) Ten μl of diluted 10× test agents is added to each well of one row of the 96 well polypropylene plates from column 2 to column 12 (column 1 is a control for bacteria alone, with no peptide). […] The same peptide is in each of the 8 rows. One plate contains dilutions of one test agent and 8 bacterial isolates.
(§4) Ninety μl of the bacterial suspensions is dispensed in each well from column 1 to column 12. Each bacterial isolate is placed in one row of a 96 well polypropylene plate containing the test agents. The plates are placed on shaker at 15 minutes at room temperature, and then incubated at 37° C. overnight. MICs are determined visually as the lowest concentration of drug that inhibits visible bacterial growth.
(§5) Data is expressed as MIC50 in μg/ml. The bacterial isolates were as follows: E. coli (25922); S. aureus (27660); E. faecalis (29212); P. aeruginosa (10145); and K. pneumoniae (13883).

E. faecalis (29212) = test: MIC assay (Table 1); conditions: Enterococcus faecalis, isolate 29212
Description: as §1, §2, §3, §4, §5

P. aeruginosa (10145) = test: MIC assay (Table 1); conditions: Pseudomonas aeruginosa, isolate 10145
E. coli (25922) = test: MIC assay (Table 1); conditions: Escherichia coli, isolate 25922
NIH/3T3 cells = test: Cytotoxicity colorimetric assay; conditions: Mus musculus, NIH3T3, 1 h, one hour incubation in serum-free media
Description: Cytotoxicity of the compounds are evaluated in a colorimetric assay using a transformed human liver cell line (HepG2, HB-8065) and an embryonic mouse cell line (NIH/3T3 cells, CRL-1658). This assay measures the bioreduction of a novel tetrazolium compound to a soluble formazan product by viable cells. HepG2 cells are seeded in 96 well plates at 2×10^4 cells/well in MEM medium with 10% fetal bovine serum (FBS) 24 hours prior to use. NIH/3T3 cells are seeded in 96 well plates at 2×10^4 cells/well in DMEM medium with 10% bovine calf serum (BCS) 24 hours prior to use. Cell monolayers are rinsed in serum-free media and incubated for one hour with a Compound in serum-free media. After incubation, the media is replaced with serum supplemented media and live cells are measured using the Cell Titer 96 Aqueous […] Assay kit (Promega, Madison, Wis.). EC50 values are determined using a four parameter logistic equation: Y=Bottom+(Top−Bottom)/(1+10^((Log EC50−X)*HillSlope)). […] Data is expressed as EC50 in μg/ml. Cytotoxicity is evaluated in a colorimetric assay using a transformed human liver cell line (HepG2, HB-8065) and an embryonic mouse cell line (NIH/3T3 cells, CRL-1658). This assay measures the bioreduction of a novel tetrazolium compound to a soluble formazan product by viable cells. HepG2 cells are seeded in 96 well plates at 3×10^4 cells/well in MEM medium with 10% fetal bovine serum (FBS) 24 hours prior to use. NIH/3T3 cells are seeded in 96 well plates at 2×10^4 cells/well in DMEM medium with 10% bovine calf serum (BCS) 24 hours prior to use. Cell monolayers are rinsed in serum-free media and incubated for one hour with test agent in serum-free media. After incubation, the media is replaced with serum supplemented media and live cells are measured using the Cell Titer 96 Aqueous […] Assay kit (Promega, Madison, Wis.). EC50 values are determined using a four parameter logistic equation: Y=Bottom+(Top−Bottom)/(1+10^((Log EC50−X)*HillSlope)).

HepG2 = test: Cytotoxicity colorimetric assay; conditions: Homo sapiens, HepG2, 1 h, one hour incubation in serum-free media
Description: Cytotoxicity of the compounds are evaluated in a colorimetric assay using a transformed human liver cell line (HepG2, HB-8065) and an embryonic mouse cell line (NIH/3T3 cells, CRL-1658). This assay measures the bioreduction of a novel tetrazolium compound to a soluble formazan product by viable cells. HepG2 cells are seeded in 96 well plates at 2×10^4 cells/well in MEM medium with 10% fetal bovine serum (FBS) 24 hours prior to use. NIH/3T3 cells are seeded in 96 well plates at 2×10^4 cells/well in DMEM medium with 10% bovine calf serum (BCS) 24 hours prior to use. Cell monolayers are rinsed in serum-free media and incubated for one hour with a Compound in serum-free media. After incubation, the media is replaced with serum supplemented media and live cells are measured using the Cell Titer 96 Aqueous […] Assay kit (Promega, Madison, Wis.). EC50 values are determined using a four parameter logistic equation: Y=Bottom+(Top−Bottom)/(1+10^((Log EC50−X)*HillSlope)). Actual results from a representative cytotoxicity assay are shown below in Table 3. Data is expressed as EC50 in μg/ml. Cytotoxicity is evaluated in a colorimetric assay using a transformed human liver cell line (HepG2, HB-8065) and an embryonic mouse cell line (NIH/3T3 cells, CRL-1658). This assay measures the bioreduction of a novel tetrazolium compound to a soluble formazan product by viable cells. HepG2 cells are seeded in 96 well plates at 3×10^4 cells/well in MEM medium with 10% fetal bovine serum (FBS) 24 hours prior to use. NIH/3T3 cells are seeded in 96 well plates at 2×10^4 cells/well in DMEM medium with 10% bovine calf serum (BCS) 24 hours prior to use. Cell monolayers are rinsed in serum-free media and incubated for one hour with test agent in serum-free media. After incubation, the media is replaced with serum supplemented media and live cells are measured using the Cell Titer 96 Aqueous […] Assay kit (Promega, Madison, Wis.). EC50 values are determined using a four parameter logistic equation: Y=Bottom+(Top−Bottom)/(1+10^((Log EC50−X)*HillSlope)).

Staphylococcus aureus = test: Antimicrobial activity (MIC) of aryl compounds (Table 2)
Text: (§6) A new series of aryl compounds was designed to evaluate the effect of charge and aromatic group hydrophobicity on the biological activity while still maintaining an amphiphilic topology. Four and six cationic charges were investigated, and three different central rings were used to tune the overall hydrophobicity: benzene, naphthalene, and phenylbenzene. The hydrophobicities of the aryl compounds were quantified using reversed-phase HPLC retention times (Rt). The antimicrobial activities (expressed as minimum inhibitory concentration (MIC)) of these compounds were tested against four pathogens, including both Gram-negative and Gram-positive bacteria, and their hemolysis (evaluated in terms of HC50, the lowest concentration that causes 50% hemolysis of red blood cells (RBCs)) was tested against human RBCs.

Escherichia coli = test: as above
Text: as §6

| Structure (SMILES) | MIC50 (S. aureus (27660)) | MIC50 (K. pneumoniae (13883)) | MIC50 (E. faecalis (29212)) | MIC50 (P. aeruginosa (10145)) | MIC50 (E. coli (25922)) | EC50 (NIH/3T3 cells) | EC50 (HepG2) | Selectivity (HC50/MIC) S. aureus (Staphylococcus aureus; HC50/MIC) | MIC (Staphylococcus aureus; Staphylococcus aureus, Table 2, read-out: MIC S. aureus) | MIC (Escherichia coli; Escherichia coli, Table 2) | Selectivity (HC50/MIC) E. coli (Escherichia coli; HC50/MIC) |
| --- | --- | --- | --- | --- | --- | --- | --- | --- | --- | --- | --- |
| NCCCOc1cc(OCCCN)cc(-c2cc(-c3cc(OCCCN)cc(OCCCN)c3)cc(-c3cc4ccccc4[nH]3)c2)c1 [Compound 108] | 1.56 µg/mL (≈ 2.45 µM) | > 50 µg/mL | 12.5 µg/mL (≈ 19.6 µM) | 25 µg/mL (≈ 39.2 µM) | 6.25 µg/mL (≈ 9.8 µM) |  |  |  |  |  |  |
| N=C(N)NCCCOc1cc(OCCCNC(=N)N)cc(-c2cccc(-c3cc(OCCCNC(=N)N)cc(OCCCNC(=N)N)c3)c2)c1 [Compound 109] | 0.4 µg/mL (≈ 0.579 µM) | 6.25 µg/mL (≈ 9.05 µM) | 1.56 µg/mL (≈ 2.26 µM) | 12.5 µg/mL (≈ 18.1 µM) | 1.56 µg/mL (≈ 2.26 µM) | 69 µg/mL (≈ 99.9 µM) |  |  |  |  |  |
| Cc1ccc(-c2cc(-c3cc(OCCCN)cc(OCCCN)c3)cc(-c3cc(OCCCN)cc(OCCCN)c3)c2)cc1 [Compound 110] | 0.78 µg/mL (≈ 1.27 µM) | 6.25 µg/mL (≈ 10.2 µM) | 1.56 µg/mL (≈ 2.55 µM) | 25 µg/mL (≈ 40.8 µM) | 3.13 µg/mL (≈ 5.11 µM) | 129 µg/mL (≈ 211 µM) |  |  |  |  |  |
| NCCCOc1cc(OCCCN)cc(-c2cccc(-c3cc(OCCCN)cc(OCCCN)c3)c2)c1 [Compound 111] | 12.5 µg/mL (≈ 23.9 µM) | > 50 µg/mL | 50 µg/mL (≈ 95.7 µM) | > 50 µg/mL | 50 µg/mL (≈ 95.7 µM) | 814 µg/mL (≈ 1560 µM) | > 1020 µg/mL | >80 | 12.5 µg/mL (≈ 23.9 µM) | 50 µg/mL (≈ 95.7 µM) | >20 |
| CC(C)(C)c1ccc(-c2cc(-c3cc(OCCCN)cc(OCCCN)c3)cc(-c3cc(OCCCN)cc(OCCCN)c3)c2)cc1 [Compound 113] | 1.56 µg/mL (≈ 2.38 µM) | 3.13 µg/mL (≈ 4.78 µM) | 1.56 µg/mL (≈ 2.38 µM) | 12.5 µg/mL (≈ 19.1 µM) | 3.13 µg/mL (≈ 4.78 µM) | 99.5 µg/mL (≈ 152 µM) |  |  |  |  |  |
| N=C(N)NCCCOc1cc(OCCCNC(=N)N)cc(-c2cc(-c3ccccc3)cc(-c3cc(OCCCNC(=N)N)cc(OCCCNC(=N)N)c3)c2)c1 [Compound 114] | 0.78 µg/mL (≈ 1.02 µM) | 1.56 µg/mL (≈ 2.03 µM) | 3.13 µg/mL (≈ 4.08 µM) | 12.5 µg/mL (≈ 16.3 µM) | 1.56 µg/mL (≈ 2.03 µM) | 33.6 µg/mL (≈ 43.8 µM) | 40.4 µg/mL (≈ 52.7 µM) |  |  |  |  |
| N=C(N)NCCCOc1cc(OCCCNC(=N)N)cc(-c2ccc3ccc(-c4cc(OCCCNC(=N)N)cc(OCCCNC(=N)N)c4)cc3c2)c1 [Compound 117] | 1.56 µg/mL (≈ 2.11 µM) | 1.56 µg/mL (≈ 2.11 µM) | 0.78 µg/mL (≈ 1.05 µM) | 12.5 µg/mL (≈ 16.9 µM) | 1.56 µg/mL (≈ 2.11 µM) | 31.6 µg/mL (≈ 42.7 µM) |  |  |  |  |  |
| NCCCOc1cc(C#Cc2ccc3ccc(C#Cc4cc(OCCCN)cc(OCCCN)c4)cc3c2)cc(OCCCN)c1 [Compound 120] | 3.13 µg/mL (≈ 5.04 µM) | 6.25 µg/mL (≈ 10.1 µM) | 1.56 µg/mL (≈ 2.51 µM) | 6.25 µg/mL (≈ 10.1 µM) | 3.13 µg/mL (≈ 5.04 µM) | 15.2 µg/mL (≈ 24.5 µM) | 36.4 µg/mL (≈ 58.6 µM) |  |  |  |  |

— patent US9469616B2, “Cyclic compounds and methods of making and using the same” (Cellceutix Corporation, priority 2011, dated 2016)
